Data as given in US20230219904A1 (SYNGENTA CROP PROTECTION AG, priority 2020, published 2023).

Columns and labels:
Format in all cases: in vivo
Details in all cases: applied at 125 g/ha, evaluated after 13 days
[1] = test system: Amaranthus retoflexus (AMARE); test: Pre-emergence herbicidal glasshouse test (Table B1)
Description: (§1) Seeds of a variety of test species are sown in standard soil in pots (Lolium perenne (LOLPE), Amaranthus retoflexus (AMARE), Abutilon theophrasti (ABUTH), Setaria faberi (SETFA), Echinochloa crus-galh (ECHCG), Ipomoea hederacea (IPOHE)). After cultivation for one day (pre-emergence) or after 8 days cultivation (post-emergence) under controlled conditions in a glasshouse (at 24/16° C., day/night; 14 hours light; 65% humidity), the plants are sprayed with an aqueous spray solution derived from the formulation of the technical active ingredient in acetone/water (50:50) solution containing 0.5% Tween 20 (polyoxyethelyene sorbitan monolaurate, CAS RN 9005-64-5). Compounds are applied at 500 g/h unless otherwise indicated. The test plants are then grown in a glasshouse under controlled conditions in a glasshouse (at 24/16° C., day/night; 14 hours light; 65% humidity) and watered twice daily. After 13 days for pre and post-emergence, the test is evaluated for the percentage damage caused to the plant. The biological activities are shown in the following table on a five-point scale (5=80-100%; 4=60-79%; 3=40-59%; 2=20-39%; 1=0-19%).

[2] = test system: Echinochloa crus-galh (ECHCG); test: as above
Description: as §1

[3] = test system: Ipomoea hederacea (IPOHE); test: as above
Description: as §1

Setaria faberi (SETFA) [4] = test: as above
Description: as §1

[5] = test system: Amaranthus retoflexus (AMARE); test: Post-emergence herbicidal glasshouse test (Table B1)
Description: as §1

[6] = test system: Echinochloa crus-galh (ECHCG); test: as above
Description: as §1

[7] = test system: Ipomoea hederacea (IPOHE); test: as above
Description: as §1

Setaria faberi (SETFA) [8] = test: as above
Description: as §1

[9] = test system: Abutilon theophrasti (ABUTH); test: Pre-emergence herbicidal glasshouse test (Table B1)
Description: as §1

SMILES: CCCOCC(=O)Nc1c(OC(F)(F)F)ccc(C(=O)Nc2nnnn2C)c1Cl [Compound 1.062]
- PRE Application AMARE, percentage damage on five-point scale [1]: 5 (5=80-100%)
- PRE Application ECHCG, percentage damage on five-point scale [2]: 2 (2=20-39%)
- PRE Application IPOHE, percentage damage on five-point scale [3]: 4 (4=60-79%)
- PRE Application SETFA, percentage damage on five-point scale (Setaria faberi (SETFA) [4]): 3 (3=40-59%)
- POST Application AMARE, percentage damage on five-point scale [5]: 5 (5=80-100%)
- POST Application ECHCG, percentage damage on five-point scale [6]: 4 (4=60-79%)
- POST Application IPOHE, percentage damage on five-point scale [7]: 4 (4=60-79%)
- POST Application SETFA, percentage damage on five-point scale (Setaria faberi (SETFA) [8]): 5 (5=80-100%)

SMILES: CC(C)OCC(=O)Nc1c(OC(F)(F)F)ccc(C(=O)Nc2nnnn2C)c1Cl [Compound 1.064]
- PRE Application AMARE, percentage damage on five-point scale [1]: 5 (5=80-100%)
- PRE Application ECHCG, percentage damage on five-point scale [2]: 3 (3=40-59%)
- PRE Application ABUTH, percentage damage on five-point scale [9]: 5 (5=80-100%)
- PRE Application IPOHE, percentage damage on five-point scale [3]: 4 (4=60-79%)
- PRE Application SETFA, percentage damage on five-point scale (Setaria faberi (SETFA) [4]): 4 (4=60-79%)
- POST Application AMARE, percentage damage on five-point scale [5]: 4 (4=60-79%)
- POST Application IPOHE, percentage damage on five-point scale [7]: 4 (4=60-79%)
- POST Application SETFA, percentage damage on five-point scale (Setaria faberi (SETFA) [8]): 4 (4=60-79%)

SMILES: CCn1nnnc1NC(=O)c1ccc(OC(F)(F)F)c(NC(=O)CC(F)(F)F)c1Cl [Compound 1.068]
- PRE Application AMARE, percentage damage on five-point scale [1]: 5 (5=80-100%)
- PRE Application ECHCG, percentage damage on five-point scale [2]: 5 (5=80-100%)
- PRE Application ABUTH, percentage damage on five-point scale [9]: 5 (5=80-100%)
- PRE Application IPOHE, percentage damage on five-point scale [3]: 3 (3=40-59%)
- PRE Application SETFA, percentage damage on five-point scale (Setaria faberi (SETFA) [4]): 5 (5=80-100%)
- POST Application AMARE, percentage damage on five-point scale [5]: 4 (4=60-79%)
- POST Application IPOHE, percentage damage on five-point scale [7]: 4 (4=60-79%)
- POST Application SETFA, percentage damage on five-point scale (Setaria faberi (SETFA) [8]): 5 (5=80-100%)

SMILES: Cn1nnnc1NC(=O)c1ccc(OC(F)(F)F)c(NC(=O)C(C)(F)F)c1Cl [Compound 1.061]
- PRE Application AMARE, percentage damage on five-point scale [1]: 5 (5=80-100%)
- PRE Application ECHCG, percentage damage on five-point scale [2]: 3 (3=40-59%)
- PRE Application IPOHE, percentage damage on five-point scale [3]: 3 (3=40-59%)
- PRE Application SETFA, percentage damage on five-point scale (Setaria faberi (SETFA) [4]): 3 (3=40-59%)
- POST Application AMARE, percentage damage on five-point scale [5]: 5 (5=80-100%)
- POST Application ECHCG, percentage damage on five-point scale [6]: 4 (4=60-79%)
- POST Application IPOHE, percentage damage on five-point scale [7]: 4 (4=60-79%)
- POST Application SETFA, percentage damage on five-point scale (Setaria faberi (SETFA) [8]): 5 (5=80-100%)

SMILES: Cc1nc(C(=O)Nc2c(OC(F)F)ccc(C(=O)Nc3nnnn3C)c2Cl)cs1 [Compound 1.038]
- PRE Application AMARE, percentage damage on five-point scale [1]: 5 (5=80-100%)
- PRE Application ECHCG, percentage damage on five-point scale [2]: 5 (5=80-100%)
- PRE Application ABUTH, percentage damage on five-point scale [9]: 5 (5=80-100%)
- PRE Application IPOHE, percentage damage on five-point scale [3]: 5 (5=80-100%)
- PRE Application SETFA, percentage damage on five-point scale (Setaria faberi (SETFA) [4]): 4 (4=60-79%)
- POST Application AMARE, percentage damage on five-point scale [5]: 4 (4=60-79%)
- POST Application IPOHE, percentage damage on five-point scale [7]: 4 (4=60-79%)
- POST Application SETFA, percentage damage on five-point scale (Setaria faberi (SETFA) [8]): 4 (4=60-79%)

SMILES: Cn1nnnc1NC(=O)c1ccc(OC(F)F)c(NC(=O)c2cc(Cl)sc2Cl)c1Cl [Compound 1.041]
- PRE Application AMARE, percentage damage on five-point scale [1]: 2 (2=20-39%)
- PRE Application ECHCG, percentage damage on five-point scale [2]: 3 (3=40-59%)
- PRE Application ABUTH, percentage damage on five-point scale [9]: 5 (5=80-100%)
- PRE Application IPOHE, percentage damage on five-point scale [3]: 2 (2=20-39%)
- PRE Application SETFA, percentage damage on five-point scale (Setaria faberi (SETFA) [4]): 2 (2=20-39%)
- POST Application AMARE, percentage damage on five-point scale [5]: 3 (3=40-59%)
- POST Application IPOHE, percentage damage on five-point scale [7]: 3 (3=40-59%)
- POST Application SETFA, percentage damage on five-point scale (Setaria faberi (SETFA) [8]): 3 (3=40-59%)
